Measured values: patent publication US20120130146A1, “CONTINUOUS ADMINISTRATION OF CILENGITIDE IN CANCER TREATMENTS” (Merck Patent GmbH, priority 2009, published 2012)
“Also recorded” adds a separate entry of the source.

Legend:
[1] = system: U251 human glioblastoma cells; test: Rat orthotopic glioblastoma model radiotherapy, Cilengitide scheduling experiments; type: in vivo; conditions: t-4 and t-8 h groups
Experimental: NIH mu nude rats are anaesthetized, restrained, and injected intracerebrally 1 mm retro orbitally, 3 mm to the right of the bregma and at a depth of 2.5 mm with 5×10E5 U251 human glioblastoma cells suspended in 10 ul of culture medium, using a #2701 Hamilton syringe fitted with a 26 gauge needle, essentially as previously described (Engebraaten et al., 1999). After 14 days, cilengitide (4 mg/kg) is given as an intraperitoneal bolus in PBS, at various time (8 h, 4 h, 2 h, 1 h) prior to a single treatment with single, collimated, dorsal-ventral beam of 6 MV x-rays, so that 95-100% of the central axis dose of 25 Gy hit the tumor volume (Kim et al., 1999). Each of the 7 subsequent days the animals also received an identical i.p. bolus of cilengitide. The animals are maintained under ad libitum food and drink until they become moribund, or are sampled for tissue analysis (in the t-4 and t-8 h groups, where the animals are healthy past 230 days post tumor injection). A Kaplan-Meier survival curve is calculated and plotted (FIG. 1) from the raw data (Table 1). All animals in the RT monotherapy group died by 120 d.

[2] = system: recurrent glioblastoma (GBM); test: Phase IIa trial of cilengitide single agent therapy in patients with recurrent glioblastoma; type: in vivo, human
Experimental: Background: The present phase IIa study was designed to evaluate the safety, toxicity, and clinical activity of the cyclic RGD pentapeptide cilengitide((=cyclo-(Arg-Gly-Asp-DPhe-NMe-Val)), an inhibitor of integrins avβ3 and avβ5, as a single agent at doses of 500 and 2000 mg in patients (pts) with recurrent glioblastoma (GBM).
Methods: in this multicenter, open-label, randomized, uncontrolled study, pts with GBM and measurable disease that had relapsed after previous therapy with temozolomide and radiotherapy were randomized to receive cilengitide at doses of either 500 mg or 2000 mg i.v., 2×/week, until progression. Histopathology diagnosis and MRI imaging were subject to independent blinded review. The primary endpoint was Progression Free Survival (PFS) at 6 months (mths). Secondary endpoints included response, survival, time to disease progression, safety, tolerability and pharmacokinetics.

[3] = system: newly diagnosed glioblastoma (GBM); test: Phase I/IIa trial of cilengitide and temozolomide with concomitant radiotherapy in newly diagnosed glioblastoma; type: in vivo, human
Experimental: Purpose: To evaluate safety, toxicity, and efficacy of the combination of the cyclic RGD pentapeptide Cilengitide (=cyclo-(Arg-Gly-Asp-DPhe-NMe-Val)), an inhibitor of integrins avβ3 and avβ5, in addition to standard temozolomide (TMZ) and radiotherapy (RT).
Patients and methods: Fifty-two pts (PS 0-1: 92%, 2: 8%; median age 57 yrs) after biopsy (n=9/17%) or tumor resection (n=43/83%) were treated with standard TMZ/RT (Stupp et al. NEJM 2005). In addition Cilengitide (500 mg i.v., 2×/week) was started one week before TMZ/RT and given throughout for the duration of chemotherapy or until progression. Primary endpoint was progression free survival rate at 6 months (target: 65%). Patients were followed with MRI every 2 months. Histopathologic diagnosis and MRI imaging were independently reviewed, MGMT promotor methylation status was assessed in 45 (86.5%) pts.

[4] = system: human umbilical vein endothelial cells (HUVECs); test: Growth (Alamar Blue) assay on HUVEC, Example 5; type: cell-based; conditions: agent alone
Text: The methods established and described in detail previously (Goodman and Hahn a; b) were used to measure the effect of combinations of integrin inhibitors and chemotherapeutics on carcinoma cell and human endothelial cell proliferation.
Points were run in duplicate or in triplicate. Reagent blanks, containing media plus Alamar Blue without cells, were run on each plate. Blank values were subtracted from test values and were routinely 5-10% of uninhibited control values.
5.5 Methods of Evaluation and Statistics Chemotherapeutic agents and αv-integrin blockers were serially diluted alone or together (combination therapy). In some assays the chemotherapeutic agent was serially diluted alone or in combination with of alpha-v integrin blocker. Growth inhibition curves were plotted and a shift of the combination therapy curve to lower concentrations in relation to the single agent curves was interpreted as an additional effect, produced by combination versus monotherapy.
The αv-integrin competitive inhibitor Cilengitide (EMD 121974) was tested alone and in combination with vinorelbine in a serum growth stimulation assay using human carcinoma cells or human umbilical vein endothelial cells (HUVECs). In these assays cells are cultured in serum, or in an endothelial growth stimulation medium (Goodman & Hahn).

[5] = human, in vivo; cited from earlier work
[6] = system: various brain tumors; conditions: cited from earlier work
[7] = Cilengitide 500 mg i.v. 2x/week in addition to standard TMZ/RT

In the case of `CC(C)[C@H]1C(=O)N[C@@H](CCCN=C(N)N)C(=O)NCC(=O)N[C@@H](CC(=O)O)C(=O)N[C@H](Cc2ccccc2)C(=O)N1C` [Cilengitide, cyclo-(Arg-Gly-Asp-DPhe-NMeVal)], the “animals healthy, days post tumor injection” value [1] is reported as greater than 230 days, the “median Overall Survival (mOS)” value ([2]; 500 mg arm) is reported as 6.5 mths and the “pts who received 12 or more cycles of therapy” value ([2]; 1 cycle = 4 weeks, both dose arms) is reported as 12.3%. The “median Overall Survival (mOS)” value ([2]; 2000 mg arm) was 9.9 mths, the “PFS rate at 6 mths” value ([2]; 500 or 2000 mg i.v. 2x/week, all 81 pts) was 16.1% and the “Treatment related NCI CTC grade 3 adverse events” value ([2]; at 500 mg, in 1 patient each) was “elevated liver enzymes; also recorded: arthralgia/myalgia”. The “Treatment related NCI CTC grade 3 adverse events” value ([2]; at 2000 mg, in 1 patient) was “weight increase/edema”, the “pts still progression-free and on treatment” value ([2]; at the time the abstract was issued) was 7.4% and the “grade 4 therapy related AEs” value ([2]; both dose arms) was “No grade 4 therapy related AEs”. For the same molecule, the “single agent activity in recurrent glioblastoma” value ([2]; human, in vivo) was “advantagous single agent activity”, the cerebral hemorrhage ([2]; possibly related either to the drug or to the disease) was “One CTC grade 2 cerebral hemorrhage” and the tolerability ([2]; single agent therapy at two dose levels) was “tolerated well”. For the same molecule, the “haematological grade 3 and 4 toxicity: lymphopenia” value [3, 7] was 53.8%, the “haematological grade 3 and 4 toxicity: neutropenia” value [3, 7] was 9.6% and the “haematological grade 3 and 4 toxicity: thrombocytopenia” value [3, 7] was 13.4%. For the same molecule, the “patients with treatment related non-hematologic grade 3 toxicities” value [3, 7] was 5.7%, the “patients progression free at 6 months (PFS-6)” value ([3]; all 52 pts, Cilengitide in addition to TMZ/RT) was 65.4% and the tolerability ([3]; combination of Cilengitide and TMZ/RT) was “well tolerated”. For the same molecule, the PFS-6 rate ([3]; subgroup with methylated MGMT promoter (23/52), Cilengitide in addition to TMZ/RT) was 91%, the PFS-6 rate ([3]; subgroup with unmethylated MGMT promotor (22/52), Cilengitide in addition to TMZ/RT) was 40.9% and the IC50 [4] was 700 nM. The half-life [5] was 3 to 5 h, the MTD in humans ([6]; human, in vivo) was “no known MTD” and the tolerability ([6]; human, in vivo) was “very well tolerated”. For the same molecule, the “response in GBM patients” value ([6]; some of the GBM patients) was “indication of response”.
